Results reported in patent US20160045482A1, “UREIDO-PYRAZOLE DERIVATIVES” (Respivert Limited, priority 2010, published 2016).

Legend:
HRV16 [1] = test: Assessment of HRV16 induced CPE in MRC5; assay type: cell-based, human rhinovirus 16; details: MRC5 cells; for IC50: Rhinovirus A, 96 h, HRV16 MOI of 1, 4 days, read-out: HRV16-induced CPE IC50 Value
Protocol: The supernatants were aspirated and fresh media was added and the preparations were then incubated for 4 days. Where appropriate, cells were pre-incubated with the test compound or DMSO for 2 hr, and the compounds and DMSO added again after washout of the virus. Supernatants were aspirated and incubated with methylene blue solution (2% formaldehyde, 10% methanol and 0.175% Methylene Blue) for 2 hr at RT. After washing, 1% SDS was added to each well, and plates were shaken lightly for 1-2 hr prior to reading the absorbance at 660 nm. The percentage inhibition for each well was calculated. The IC50 value was calculated from the concentration-response curve generated from the serial dilutions of the test compound.

ICAM-1 = test: ICAM1 expression activated by human rhinovirus in BEAS2B cells (cell-based ELISA); details: for IC50: Homo sapiens, BEAS-2B, HRV16 inoculation (2 hr infection), read-out: HRV16-induced ICAM1 IC50 Value
Protocol: BEAS2B cells were infected with rhinovirus at an MOI of 5 and incubated for 2 hr at 33° C. with gentle shaking to enhance adsorption. Test compounds were added 2 hr before HRV infection and 2 hr after infection when residual extracellular HRV was washed out. The cells were then washed with PBS, fresh media was added and the cells were incubated for a further 72 hr. The supernatant was collected for assay of IL-8 concentrations using the Duoset ELISA development kit (R&D Systems, Minneapolis, Minn.). […] After appropriate incubation, cells were fixed with 4% formaldehyde in PBS. After quenching endogenous peroxidase by adding 0.1% sodium azide and 1% hydrogen peroxide, wells were washed with buffer (0.05% Tween in PBS: PBS-Tween). After incubation with the blocking solution (5% milk in PBS-Tween for 1 hr), cells were incubated with anti-human ICAM-1 antibody in 5% BSA PBS-Tween (1:500) overnight. Wells were then washed with PBS-Tween and incubated with the secondary antibody (HRP-conjugated anti-rabbit IgG, Dako Ltd.).

IL-8 = IL-8 release activated by human rhinovirus in BEAS2B cells; assay type: cell-based; details: Homo sapiens, BEAS-2B; BEAS2B cells, MOI of 5, 72 hr; read-out: HRV16-induced IL-8 IC50 Value
Protocol: BEAS2B cells were infected with rhinovirus at an MOI of 5 and incubated for 2 hr at 33° C. with gentle shaking to enhance adsorption. Test compounds were added 2 hr before HRV infection and 2 hr after infection when residual extracellular HRV was washed out. The cells were then washed with PBS, fresh media was added and the cells were incubated for a further 72 hr. The supernatant was collected for assay of IL-8 concentrations using the Duoset ELISA development kit (R&D Systems, Minneapolis, Minn.).

HRV16 [2] = test: HRV-16 infection, assessment of virus load (TCID50) in MRC5 cells; assay type: cell-based, human rhinovirus 16; details: HRV16 0.1 MOI, 3 days
Protocol: Human rhinovirus RV16 (HRV16) was obtained from the American Type Culture Collection (Manassas, Va.). Viral stocks were generated by infecting Hela cells with HRV until 80% of the cells were cytopathic. MRC5 cells (human lung fibroblast, ATCC) were infected at 0.1 MOI (multiplicity of infection of 0.1) of HRV16 and incubated for 1 hr at 33° C. with gentle shaking to stimulate adsorption. The cells were then washed with PBS, fresh media (DMEM-5% FCS) was added and the cells were incubated for a further 72 hr. Supernatant (20 μL) was collected and 10-fold serial dilutions were prepared with DMEM containing 1% FCS. All titrations were performed by infecting confluent Hela cell monolayers with serially diluted supernatant (10^−1-10^−5) and then the cytopathic effect at each dilution 3 days after infection assessed by visual inspection. The cells were then stained with Crystal Violet for confirmation. The amount of virus required to infect 50% of Hela cells was calculated in each treatment as TCID50 (50% tissue culture infectious dose, U(unit)/20 μL). Compounds were added 2 hr before HRV16 infection and 1 hr after infection when non-infected HRV was washed out.

IRF-3 = test: HRV-16 induced activation of IRF-3 in BEAS2B cells; assay type: cell-based, human; details: after 2 hr, at 10 MOI
Protocol: (§1) The cells were then collected by scraping on ice and nuclear extracts were prepared using a nuclear protein extraction kit (ActiveMotif, […], Belgium). NFκB activity and IRF3 activity were then measured using the TransAMTM NFκB (p65) ELISA kit or the TransAMTM IRF3 ELISA kit.

NFκB = test: HRV-16 induced activation of NFκB in BEAS2B cells; assay type: cell-based, human; details: after 2 hr, at 10 MOI
Protocol: as §1

HRV16 mRNA = test: Transcripts of HRV16 by PCR in MRC5 cellular extract; assay type: cell-based, human rhinovirus 16; details: MRC5 cells, HRV16 0.1 MOI, 3 days
Protocol: The MRC5 cells infected with virus (as described above) were used for viral RNA or mRNA detection. Total RNA extraction and reverse transcription were performed using TaqMan®Fast Cells-to-CT™ Kit (Ambion Inc. Austin Tex.). The gene transcript level of HRV16 (PrimerDesign Ltd, Southampton, UK), IFN (Applied Biosystems, Warrington, UK) and GAPDH, as a house-keeping gene (PrimerDesign Ltd, Southampton, UK) were quantified by real-time PCR using commercially available primers on a StepOnePlus™ RT-PCR system (Applied Biosystems, Warrington, UK). Variations in cDNA concentrations between different samples were corrected using the housekeeping gene, whereby the GAPDH concentration in each cDNA sample was calculated, and the cDNA diluted to contain equal amounts of GAPDH. Standard curves for GAPDH were generated by performing a dilution series of the untreated control cDNA. The relative amount of gene transcript present after different treatments was calculated and normalized by dividing the calculated value for the gene of interest by that of the house-keeping gene value.

rhinovirus = details: Jefferson and Tyrrell 2007; cited from earlier work
HRV16 [3] = test: HRV-16 infection, assessment of virus load (TCID50) in MRC5 cells; assay type: cell-based, human rhinovirus 16; details: pilot studies
[4] = listed as Fluticasone propionate

Row | IC50 (IL-8) | Compound | HRV16-induced CPE (in words) (HRV16 [1]) | IC50 (HRV16 [1]) | also measured
1 | – | Cc1ccc(-n2nc(C(C)(C)C)cc2NC(=O)Nc2ccc(Oc3ccnc(NC(=O)N4CCCC4)c3)c3ccccc23)cc1 [Example 14, N-(4-(4-(3-(3-tert-Butyl-1-p-tolyl-1H-pyrazol-5-yl)ureido)naphthalen-1-yloxy)pyridin-2-yl)pyrrolidine-1-carboxamide] | inhibited HRV16-induced CPE in MRC5 cells in a concentration-dependent manner | 3.3 nM | –
2 | 0.12 nM | CNC(=O)Nc1cc(Oc2ccc(NC(=O)Nc3cc(C(C)(C)C)nn3-c3ccc(C)cc3)c3ccccc23)ccn1 [Example 37] | inhibited HRV16-induced CPE in MRC5 cells in a concentration-dependent manner | 24 nM | IC50 (ICAM-1): 0.029 nM
3 | – | Cc1ccc(-n2nc(C(C)(C)C)cc2NC(=O)Nc2ccc(OCCN3CCOCC3)c3ccccc23)cc1 [BIRB-796] | – | – | HRV-16 virus load (extracellular) (HRV16 [2]): No effect; IRF-3 activation (HRV-16 induced) (IRF-3): tendency to inhibit
4 | 0.069 nM | Cc1ccc(-n2nc(C(C)(C)C)cc2NC(=O)Nc2ccc(Oc3ccnc(NC(=O)N4CCOCC4)c3)c3ccccc23)cc1 [Example 43, N-(4-(4-(3-(3-tert-Butyl-1-p-tolyl-1H-pyrazol-5-yl)ureido)naphthalen-1-yloxy)pyridin-2-yl)morpholine-4-carboxamide] | inhibited HRV16-induced CPE in MRC5 cells in a concentration-dependent manner | 9.5 nM | –
5 | – | CCC(=O)O[C@]1(C(=O)SCF)[C@H](C)C[C@H]2[C@@H]3C[C@H](F)C4=CC(=O)C=C[C@]4(C)[C@@]3(F)[C@@H](O)C[C@@]21C [fluticasone propionate] | – | – | ICAM-1 expression induced by HRV16 inoculation (in words) (ICAM-1; 2 hr infection): much more modest; Concentrations at which concentration-dependent effects on ICAM-1 are apparent, relative to Reference Compound 2 (ICAM-1; results not shown): 10,000 fold; HRV-16 virus load (extracellular) (HRV16 [2]): without effect; HRV-16 virus load (extracellular) (HRV16 [2]; [4]): No effect; IRF-3 activation (HRV-16 induced) (IRF-3): tendency to inhibit; NFκB activation (HRV-16 induced) (NFκB): no clear effect; NFκB activation (HRV-16 induced) (NFκB; [4]): No effect; HRV16 mRNA detected in cellular extracts (HRV16 mRNA): without effect
6 | 0.041 nM | Cc1ccc(-n2nc(C(C)(C)C)cc2NC(=O)Nc2ccc(Oc3ccnc(NC(=O)N(C)C)c3)c3ccccc23)cc1 [Example 45, 3-(4-((4-(3-(3-(tert-Butyl)-1-(p-tolyl)-1H-pyrazol-5-yl)ureido)naphthalen-1-yl)oxy)pyridin-2-yl)-1,1-dimethylurea] | inhibited HRV16-induced CPE in MRC5 cells in a concentration-dependent manner | 9.4 nM | IC50 (ICAM-1): 0.098 nM
7 | 0.019 nM | Cc1ccc(-n2nc(C(C)(C)C)cc2NC(=O)Nc2ccc(Oc3ccnc(NC(N)=O)c3)c3ccccc23)cc1 [Example 30, 4-(4-(3-(3-tert-Butyl-1-p-tolyl-1H-pyrazol-5-yl)ureido)naphthalen-1-yloxy)pyridin-2-ylurea] | inhibited HRV16-induced CPE in MRC5 cells in a concentration-dependent manner | 2.9 nM | –
8 | 0.041 nM | Cc1ccc(-n2nc(C(C)(C)C)cc2NC(=O)Nc2ccc(Oc3ccnc(NC(=O)N4CCN(C)CC4)c3)c3ccccc23)cc1 [Example 44, N-(4-((4-(3-(3-(tert-Butyl)-1-(p-tolyl)-1H-pyrazol-5-yl)ureido)naphthalen-1-yl)oxy)pyridin-2-yl)-4-methylpiperazine-1-carboxamide] | inhibited HRV16-induced CPE in MRC5 cells in a concentration-dependent manner | 16.3 nM | IC50 (ICAM-1): 0.069 nM
9 | – | Cc1cc(CCCOc2c(C)cc(-c3noc(C(F)(F)F)n3)cc2C)on1 [pleconaril] | – | – | Activity against rhinovirus infections in clinical development (rhinovirus): active against rhinovirus infections; HRV-16 virus load (extracellular) (HRV16 [2]): clearly inhibits; Effect of treatment time versus the point of inoculation with HRV16 (HRV16 [3]): essentially only effective if the drug was administered prior to infection; HRV16 mRNA detected in cellular extracts (HRV16 mRNA): clearly inhibits
10 | – | COc1cc(Nc2ncc(F)c(Nc3ccc4c(n3)NC(=O)C(C)(C)O4)n2)cc(OC)c1OC [Example R-406] | – | – | NFκB activation (HRV-16 induced) (NFκB): inhibited
11 | – | Cc1ccc(-n2nc(C(C)(C)C)cc2NC(=O)Nc2ccc(Oc3ccnc(NC(=O)N4CC[C@@H](N(C)C)C4)c3)c3ccccc23)cc1 [Example 55, (R)-N-(4-(4-(3-(3-tert-Butyl-1-p-tolyl-1H-pyrazol-5-yl)ureido)naphthalen-1-yloxy)pyridin-2-yl)-3-(dimethylamino)pyrrolidine-1-carboxamide] | inhibited HRV16-induced CPE in MRC5 cells in a concentration-dependent manner | 14.3 nM | –
